For eleven compounds, TGI results are on record in PubChem BioAssay (NCI).

Each structure is given as a SMILES string.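 Five concentrations, 48 hours, 96-well plates. The concentration for full growth arrest is given as TGI.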

Assay in all cases: growth of human tumour cells (NCI), 48 h
For assay [1], the system named is PC-3 prostate.
Assay [2] relates to RPMI-8226 leukemia.
The test system of assay [3] is MDA-MB-231 breast.
The subject of assay [4] is SK-MEL-5 melanoma.
The test system of assay [5] is A549 NSCLC.
Assay [6] deals with SK-MEL-2 melanoma.
Assay [7] concerns CAKI-1 renal.
The subject of assay [8] is HOP-62 NSCLC.
The test system of assay [9] is RXF 393 renal.
For assay [10], the system named is SK-MEL-28 melanoma.
Assay [11] deals with SW-620 colon.
The subject of assay [12] is OVCAR-8 ovarian.

On to `CNC(=O)c1[nH]cnc1/N=N/N(C)N`, for which the TGI in assay [1], in assay [2], in [3], in assay [4], in assay [5] and in [6] was over 100 µM each time. The TGI in assay [7], in assay [8], in assay [9], in assay [10], in assay [11] and in assay [12] was over 100 µM throughout.
Turning to `COC(=O)c1c(C)cccc1/C=C1\Cc2cc(C)cc(C)c2C1=O`, the TGI in assay [1] is over 100 µM; in assay [2], over 100 µM; in assay [3], over 100 µM; in [4], over 100 µM; in [5], over 100 µM; in [6], 57.3 µM. Also, the TGI is over 100 µM in assay [7]; 37.7 µM in [8]; 58.5 µM in assay [9]; over 100 µM in assay [10]; over 100 µM in [11]; over 100 µM in assay [12].
`CC(C)C1OC(=O)/C=C/C=C/C=C/C=C/C=C/CC(O)CC(O)CC(O)CC(O)CC(O)CC(O)CC(O)CC(O)/C=C/C1C` (configuration not stated): the TGI in assay [1], in assay [2], in assay [3], in assay [4], in assay [5] and in assay [6] was over 100 µM throughout. The TGI in assay [7], in assay [8], in assay [9], in assay [10], in assay [11] and in assay [12] was over 100 µM each time.
Turning to `Cc1nnc2n1-c1ccccc1C(=S)N1CSCC21` (configuration not stated), the TGI in assay [1], in [2], in assay [3], in assay [4], in assay [5] and in [6] was over 100 µM throughout. Further, the TGI in assay [7], in assay [8], in assay [9], in [10], in [11] and in [12] was over 100 µM in each case.
On to `CC1(C)CC(=O)c2c(nc3ccc4ccccc4c3c2-c2ccc(NC(=O)CCC(=O)Nc3ccc(-c4c5c(nc6ccc7ccccc7c46)CC(C)(C)CC5=O)cc3)cc2)C1`, for which the TGI in [1], in assay [2], in assay [3], in assay [4], in assay [5] and in [6] was over 100 µM throughout. Moreover, the TGI in assay [7], in assay [8], in [9], in [10], in assay [11] and in assay [12] was over 100 µM in each case.
As to `COCCOCCOC1=C(Cl)C(=O)c2c(O)ccc(O)c2C1=O`, the TGI is 17.5 µM in assay [1]; 3.07 µM in [2]; 4.12 µM in [3]; 3.79 µM in assay [4]; 25.5 µM in assay [5]; 4.86 µM in assay [6]. Also, the TGI in assay [7] is 3.17 µM; in assay [8] it was 7.3 µM; in assay [9] it was 2.99 µM; in assay [10], 5.12 µM; in [11], 0.562 µM; in assay [12], 5.99 µM.
In the case of `Clc1ccc(C2NN=C3c4ccccc4OCC32)cc1` (configuration not stated), the TGI was 64.3 µM in [1]; 6.93 µM in [2]; 6.91 µM in [3]; 20.4 µM in assay [4]; over 100 µM in [5]; 15.5 µM in assay [6]. Moreover, the TGI in assay [7] is over 100 µM; in [8], over 93.5 µM; in assay [9] it was 41.3 µM; in assay [10], over 85.6 µM; in assay [11] it was over 25.3 µM; in assay [12] it was 55.2 µM.
Regarding `C1=C\CCCCN2C[C@H]3CCCC/C=C\CCCCN4CC[C@@H]([C@H](CCCCCC/1)C4)[C@H](C3)C2`, the TGI came to 14.5 µM in assay [1]; 3.56 µM in [2]; 3.01 µM in [3]; 3.12 µM in [4]; 6.95 µM in [5]; 4.56 µM in assay [6]. In addition, the TGI worked out at 5.6 µM in assay [7]; 5 µM in [8]; 2.99 µM in [9]; 3.89 µM in assay [10]; 6.71 µM in assay [11]; 7.74 µM in [12].
For `Brc1ccc2[nH]cc(-c3nc(-c4c[nH]c5ccccc45)cs3)c2c1`, the TGI in [1] was 9.55 µM; in [2], over 20.7 µM; in assay [3], 7.68 µM; in assay [4], 4.01 µM; in assay [5], 15.8 µM; in [6], 8.43 µM. Moreover, the TGI was determined as 8.2 µM in [7]; 21.7 µM in assay [8]; 16 µM in assay [9]; 20.9 µM in assay [10]; 13.3 µM in [11]; 20.9 µM in assay [12].
On to `C#C[C@]1(O)CC[C@H]2[C@@H]3CCc4cc(OC(=O)c5cccc6cc7ccccc7nc56)ccc4[C@H]3CC[C@@]21C`, for which the TGI in assay [1] is over 100 µM; in [2], over 100 µM; in assay [3], 71.9 µM; in assay [4], 29.5 µM; in [5], over 100 µM; in assay [6], over 100 µM. Besides, the TGI in assay [7] is 65.1 µM; in assay [8], over 100 µM; in [9], over 100 µM; in assay [10], over 100 µM; in [11], over 100 µM; in assay [12], over 100 µM.
With `CNC1=CC(=O)C2=C(C1=O)[C@H]1CC[C@]3(C)C(=O)CC[C@H]3[C@@H]1CC2`, the TGI in assay [1] was 38.9 µM; in assay [2], 48.5 µM; in assay [3] it was over 64.8 µM; in assay [4] it was 27.6 µM; in assay [5] it was 49.9 µM; in assay [6] it was 17.1 µM. Besides, the TGI in assay [7] was 33.6 µM; in assay [8] it was 29.8 µM; in assay [9], 41.1 µM; in assay [10], 34.4 µM; in assay [11] it was over 51.6 µM; in assay [12], 29.5 µM.
